In ChEMBL document CHEMBL3044667, “Insecticidal activities of crude extracts and phospholipids from Chenopodium ficifolium against melon and cotton aphid, Aphis gossypii” (2010):
Active and inactive are the calls of the source. The calls are words filed in the database; no cut-off is given here.

Experiments:
[1] = test system: Aphis gossypii; test: Insecticidal activity against Aphis gossypii (cotton aphid) infested fourth-leaf stage cucumber seedlings followed by compound exposure at 1000 ug/ml assessed as induction of insect death on leaves after 48 hr post compound treatment relative to untreated control; assay type: functional, organism-based
[2] = test system: Aphis gossypii; test: Insecticidal activity against Aphis gossypii (cotton aphid) infested fourth-leaf stage cucumber seedlings followed by compound exposure assessed as insect control after 48 hr post compound treatment relative to untreated control; assay type: functional, organism-based

CCCCCCCCCCCCC=CCC(=O)OC(COC(=O)CCCCCCCCCCCCCCC)COP(=O)(O)OCC(O)CO (configuration not stated)
Activity [1]: Active | Activity [2]: Dose-dependent effect
